# Settings: buffer; pH 7.4; 200.0 µM
row,Compound,solubility kinetic [µg/mL]
1,O=[N+]([O-])c1ccc2c(c1)Nc1nc3ccccc3nc1N2,1.4
2,CC(C)CCN1CCN(C2CSCCSC2)CC1CCO (centres undefined),> 49.9
3,COc1cccc(C2NC(=O)CCC2[N+](=O)[O-])c1 (centres undefined),> 37.5
4,COc1cc(C2C(C#N)=C(N)Oc3cc(C)oc(=O)c32)cc(OC)c1OC (centres undefined),> 55.6
5,Cc1occc1C(=O)Nc1sccc1C(N)=O,10.7
6,CC1CCCCN1CCn1c(=S)[nH]c2cc3c(cc2c1=O)OCO3 (centres undefined),> 52.1
7,Cc1nc(C)n(CC(=O)c2ccc(Cl)cc2Cl)n1,> 42.6
8,Brc1cc2c(cc1-c1nc3ccccc3s1)OCO2,< 0.7
9,NS(=O)(=O)c1ccc(Nc2c([N+](=O)[O-])cncc2[N+](=O)[O-])cc1,50.4
10,CC#C[C@]1(O)CC[C@H]2[C@@H]3CCC4=CC(=O)CCC4=C3[C@@H](c3ccc(N(C)C)cc3)C[C@@]21C,7
11,COc1ccc(-c2noc(-c3ccoc3C)n2)cc1OC,0.8
12,O=C(Cn1nc(Cl)nc1Cl)c1ccc([N+](=O)[O-])cc1,> 45.2
13,Cc1cnc(NS(=O)(=O)c2ccc(Cl)cc2)c(Br)c1,> 54.2
14,CC1CCCC(NC(=O)CNC(=O)c2cccs2)C1C (centres undefined),> 44.2
15,Cc1cc(C)nc(N2Cc3ccccc3C2=N)n1,> 35.7
16,O=C(Nc1ccon1)c1ccc(Br)s1,5.5
17,CN(C)c1nc(N)c([N+](=O)[O-])c(NCC2CCCO2)n1 (centres undefined),40.5
18,Cc1ccc2oc(C(=O)Nc3nonc3C)c(C)c2c1,< 0.2
19,CCN(CC)c1ccc(NC(=S)Nc2ccc(F)cc2)cc1,9
20,Brc1ccc(OCCCOc2cccc3cccnc23)cc1,< 0.8
21,Cn1cccc1C1CCCN1CC(=O)Nc1ccc(F)c(F)c1F (centres undefined),> 50.6

row,Compound,solubility kinetic [µg/mL]
1,c1ccc(CNc2nc(-c3cccnc3)cs2)cc1,22.4
2,COc1cc(C(=O)N[C@H](C(=O)OCC(=O)NC2CCCCCC2)C(C)C)cc(OC)c1OC,> 69.7
3,O=[N+]([O-])c1ccc2cn[nH]c2c1,> 24.5
4,CC(C)(C)c1ccc(C(=O)NC(=S)NCc2ccco2)cc1,0.6
5,CCCSc1nc2c(c(=O)[nH]c(=O)n2C)n1Cc1ccccc1,1.6
6,CCNC(=O)[C@H]1O[C@@H](n2cnc3c(N)ncnc32)[C@H](O)[C@@H]1O,> 46.2
7,COC(=O)[C@H](CC(C)C)NC(=O)NCCC1=CCCCC1,> 44.5
8,O=C(NC12CC3CC(CC(C3)C1)C2)c1ccc([N+](=O)[O-])cc1,5.4
9,NCC(c1ccccc1)c1c[nH]c2ccccc12 (centres undefined),22.1
10,CC(C)S(=O)(=O)c1csc(NC(=O)Nc2cc(Cl)ccc2Cl)c1Cl,< 0.5
11,O=C(NCCc1ccccn1)c1cncc(Br)c1,> 45.9
12,Cc1cc(=O)[nH]c(/N=C(\N)Nc2ccc(SC(F)F)cc2)n1,2
13,N#Cc1cc(Nc2c(N)nc[nH]c2=O)c([N+](=O)[O-])cc1C#N,> 44.6
14,Oc1ccc(Cl)cc1CNc1nccs1,13.9
15,CCCC(=O)OC/C(O)=C(\C#N)c1nc2ccccc2[nH]1,32.4
16,Cc1ccc(CN2CCS(=O)(=O)CC2)o1,> 34.4
17,CCCC(=O)NC(=S)Nc1cc(-c2nc3ncccc3o2)ccc1C,0.5
18,Cn1ccnc1SCC(=O)Nc1ccc([N+](=O)[O-])cn1,> 44
19,O=C(NC(=S)Nc1ccc([N+](=O)[O-])cc1O)C1CCCCC1,3.5
20,Cc1cc(C(=O)CN2C(=O)NC(CCS(C)(=O)=O)C2=O)c(C)n1C1CC1 (centres undefined),48.3
21,CCc1ccc(NC(=O)CCCN2C(=S)NC(C)(C)CC2C)cc1 (centres undefined),38.7

# Next, values leading:
row,solubility kinetic [µg/mL],Compound
1,< 0.3,Cc1ccc2c(c1)sc1ncc(NC(=O)c3ccc(F)cc3)c(=O)n12
2,> 46.7,Cc1ccccc1CS(=O)(=O)CC(O)CN1CCCC1=O (centres undefined)
3,> 37.5,Cc1cc(C(=O)N2CCOCC2)ccc1[N+](=O)[O-]
4,> 46.6,Cc1ccc(N(CC(=O)N2CCCC2)S(C)(=O)=O)cc1C
5,7.9,NC(=O)NC(=O)C(Nc1ccc2c(c1)CCC2)c1ccccc1 (centres undefined)
6,< 0.3,Cc1ccc(O)c(NC(=O)c2cc(-c3ccc(F)cc3)on2)c1
7,45.8,Cc1ccccc1C(=O)Nc1cccc(NC(=O)c2cccnc2)c1
8,> 34.5,Fc1ccc(-c2cnc3n2CCCCC3)cc1
9,34.8,c1cc2c3c(cccc3c1)C(N1CCOCC1)=N2
10,12.9,O=C(CNS(=O)(=O)Cc1ccccc1)NCc1ccccc1
11,> 53.3,CCOc1ccc(NC(=O)CC(Cc2cc(C)cc(C)c2)C(=O)O)cc1 (centres undefined)
12,14.1,Cc1ccc(N(Cc2cc(=O)[nH]c3ccccc23)C(=O)CCl)c(C)c1
13,> 48.8,Cc1cccc(C(=O)Oc2ccccc2C(=O)N2CCOCC2)c1
14,44.3,Cc1ccccc1NC(=O)CN1CCN(Cc2ccccc2)CC1
15,> 43.4,O=C(NC(=S)NCc1cccnc1)c1ccccc1F
16,> 46.4,CC(=O)N1CCN(C(=O)CNC(=O)c2ccc(C)s2)CC1
17,> 53.8,CCCCC(=O)N1CC(=O)Nc2ccc(F)cc2C1c1ccc(F)cc1 (centres undefined)
18,> 66.4,CC1(c2ccccc2Cl)NC(=O)N(CC(=O)Nc2ccc(N3CCOCC3)cc2)C1=O (centres undefined)
19,9.6,CC(Cl)C(=O)c1ccc2c(c1)CCN2C(=O)C1CC1 (centres undefined)
20,> 60.1,Cc1c(NC(=O)COC(=O)c2ccc(Cl)nc2)c(=O)n(-c2ccccc2)n1C
21,< 0.2,Cc1ccc(NC(=O)Nc2cccc(C)n2)c(C)c1

row,solubility kinetic [µg/mL],Compound
1,24.8,COc1ccc(C(=O)OCC(=O)N2CCc3ccccc32)cc1S(=O)(=O)N1CCOCC1
2,29.1,Cc1cccc(/C(N)=N/OC(=O)c2ccncc2)c1
3,0.8,CC(=O)c1ccc(N/C=C/C(=O)c2ccc(Br)cc2)cc1
4,> 38.7,COc1cccc(OCC(=O)Nc2ccncc2)c1
5,< 0.3,CC(=O)Nc1ccc(NC(=O)/C=C/c2ccc(Cl)cc2)cc1
6,> 57.5,O=C(NCCN1CCN(c2ccc([N+](=O)[O-])cc2)CC1)NCc1ccccc1
7,34.4,Cc1ccc(C(C)NC(=O)Cc2cccs2)c(C)c1 (centres undefined)
8,33.6,Cl.O=C(CN1CCCCC1)Nc1cccc(Cl)c1
9,> 36.9,O=C1CCCc2c1nc(-c1ccccc1F)n2O
10,14.4,COC(=O)CN(c1nc(C)c(Br)c(OC)n1)S(=O)(=O)c1ccccc1
11,< 0.4,CCOC(=O)c1c(NC(=S)N2CCOCC2)sc(C)c1C
12,> 46.4,Cc1ccc(/C=C/C(=O)O)cc1S(=O)(=O)N1CCCCC1
13,< 0.6,Cc1ccc(NC(=O)C2OCCc3ccccc32)cc1Cl (centres undefined)
14,4.4,O=C(Nc1cc([N+](=O)[O-])ccc1F)C1CCN(S(=O)(=O)c2cccs2)CC1
15,> 41.1,O=C1CCN(S(=O)(=O)c2ccc(Cl)cc2)CC1
16,0.6,Cc1ccccc1NC(=S)N1CCN(c2ccccc2C)CC1
17,1.7,NS(=O)(=O)c1ccc(CNC(=O)c2cc(=O)c3ccccc3o2)cc1
18,0.4,COc1ccc(OC2CCN(C(=O)Nc3ccc(C)cc3)CC2)cc1
19,49.9,Cc1cc(C)cc(OCC(=O)Nc2ccc(CN3CCCCC3)cc2)c1
20,32.9,O=CN1c2ccccc2CSc2ccccc21
21,9.2,Cc1cc(C)cc(NC(=S)N2CCN(c3ccccn3)CC2)c1

# From PubChem BioAssay AID1996
